Experimental data as given in ChEMBL document CHEMBL1140144 (J Med Chem, 2008).

Experiments:
Protease [1] = biological target: T1, Protease (Human immunodeficiency virus 1, UniProt Q9YQ12); experiment: Inhibition of wild type HIV1 protease by uncompetitive binding
Protease [2] = biological target: T1, Protease; experiment: Inhibition of wild type HIV1 protease by competitive binding

Q: CC(C)CN(C[C@@H](O)[C@H](Cc1ccccc1)NC(=O)O[C@H]1CCOC1)S(=O)(=O)c1ccc(N)cc1 was tested. Which Ki (Protease [1]) did it give?
A: The Ki was 28 nM.

Q: And the Ki (Protease [2])?
A: The Ki was 6.2 nM.
